In PubChem BioAssay (NCI):
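Briefly, cells in 96-well plates were exposed to five compound concentrations for 48 h, and endpoints were estimated by linear interpolation. The concentration for full growth arrest is given as TGI.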

Experiments:
Test in all cases: NCI anticancer screen, dose series, 48 h
[1] = system: 786-0 renal
[2] = system: A498 renal
[3] = system: A549 NSCLC
[4] = system: ACHN renal
[5] = system: BT-549 breast
[6] = system: CAKI-1 renal
[7] = system: CCRF-CEM leukemia
[8] = system: COLO 205 colon
[9] = system: DU-145 prostate
[10] = system: EKVX NSCLC
[11] = system: HCT-116 colon
[12] = system: HCT-15 colon
[13] = system: HL-60(TB) leukemia
[14] = system: HOP-62 NSCLC
[15] = system: HOP-92 NSCLC
[16] = system: HS 578T breast
[17] = system: HT29 colon
[18] = system: IGROV1 ovarian
[19] = system: K-562 leukemia
[20] = system: KM12 colon
[21] = system: LOX IMVI melanoma
[22] = system: M14 melanoma
[23] = system: MALME-3M melanoma
[24] = system: MCF7 breast
[25] = system: MDA-MB-231 breast
[26] = system: MDA-MB-435
[27] = system: MDA-N
[28] = system: MOLT-4 leukemia
[29] = system: NCI-H23 lung
[30] = system: NCI-H460 lung
[31] = system: NCI-H522 lung
[32] = system: NCI/ADR-RES ovarian
[33] = system: OVCAR-3 ovarian
[34] = system: OVCAR-4 ovarian
[35] = system: OVCAR-5 ovarian
[36] = system: OVCAR-8 ovarian
[37] = system: PC-3 prostate
[38] = system: RPMI-8226 leukemia
[39] = system: SF-268 CNS
[40] = system: SF-295 CNS
[41] = system: SF-539 CNS
[42] = system: SK-MEL-2 melanoma
[43] = system: SK-MEL-28 melanoma
[44] = system: SK-MEL-5 melanoma
[45] = system: SK-OV-3 ovarian
[46] = system: SN12C renal
[47] = system: SNB-19 CNS
[48] = system: SR leukemia
[49] = system: SW-620 colon
[50] = system: T-47D breast
[51] = system: TK-10 renal
[52] = system: U251 CNS
[53] = system: UACC-257 melanoma
[54] = system: UACC-62 melanoma
[55] = system: UO-31 renal
[56] = system: NCI-H226 lung
[57] = system: RXF 393 renal
[58] = system: SNB-75 CNS

## N#Cc1cc(N(CCCl)CCCl)c([N+](=O)[O-])cc1[N+](=O)[O-]
[1]
  TGI: > 100 µM
[2]
  TGI: > 100 µM
[3]
  TGI: > 100 µM
[4]
  TGI: > 100 µM
[5]
  TGI: > 100 µM
[6]
  TGI: 69.8 µM
[7]
  TGI: 98.2 µM
[8]
  TGI: > 100 µM
[9]
  TGI: > 100 µM
[10]
  TGI: > 100 µM
[11]
  TGI: > 100 µM
[12]
  TGI: > 100 µM
[13]
  TGI: 80.9 µM
[14]
  TGI: > 100 µM
[15]
  TGI: > 100 µM
[16]
  TGI: > 100 µM
[17]
  TGI: > 100 µM
[18]
  TGI: > 100 µM
[19]
  TGI: > 100 µM
[20]
  TGI: > 100 µM
[21]
  TGI: > 100 µM
[22]
  TGI: > 100 µM
[23]
  TGI: > 100 µM
[24]
  TGI: > 100 µM
[25]
  TGI: > 100 µM
[26]
  TGI: > 100 µM
[27]
  TGI: > 100 µM
[28]
  TGI: > 100 µM
[29]
  TGI: > 100 µM
[30]
  TGI: > 100 µM
[31]
  TGI: > 100 µM
[32]
  TGI: > 100 µM
[33]
  TGI: > 100 µM
[34]
  TGI: > 100 µM
[35]
  TGI: > 100 µM
[36]
  TGI: > 100 µM
[37]
  TGI: > 100 µM
[38]
  TGI: > 100 µM
[39]
  TGI: > 100 µM
[40]
  TGI: > 100 µM
[41]
  TGI: > 100 µM
[42]
  TGI: > 100 µM
[43]
  TGI: > 100 µM
[44]
  TGI: > 100 µM
[45]
  TGI: > 100 µM
[46]
  TGI: > 100 µM
[47]
  TGI: > 100 µM
[48]
  TGI: 35.8 µM
[49]
  TGI: > 100 µM
[50]
  TGI: 57.2 µM
[51]
  TGI: > 100 µM
[52]
  TGI: > 100 µM
[53]
  TGI: > 100 µM
[54]
  TGI: > 100 µM
[55]
  TGI: > 100 µM

## CCC12CC(c3ccccc3)C(C(=O)N1)C(=O)N2 (stereo unspecified)
[1]
  TGI: > 100 µM
[2]
  TGI: > 100 µM
[3]
  TGI: > 100 µM
[4]
  TGI: > 100 µM
[5]
  TGI: > 100 µM
[6]
  TGI: > 100 µM
[7]
  TGI: > 100 µM
[8]
  TGI: > 100 µM
[9]
  TGI: > 100 µM
[10]
  TGI: > 100 µM
[11]
  TGI: > 100 µM
[12]
  TGI: > 100 µM
[13]
  TGI: > 100 µM
[14]
  TGI: > 100 µM
[15]
  TGI: > 100 µM
[16]
  TGI: > 100 µM
[17]
  TGI: > 100 µM
[18]
  TGI: > 100 µM
[19]
  TGI: > 100 µM
[20]
  TGI: > 100 µM
[22]
  TGI: > 100 µM
[23]
  TGI: > 100 µM
[24]
  TGI: > 100 µM
[25]
  TGI: > 100 µM
[26]
  TGI: > 100 µM
[27]
  TGI: > 100 µM
[28]
  TGI: > 100 µM
[56]
  TGI: > 100 µM
[29]
  TGI: > 100 µM
[30]
  TGI: > 100 µM
[31]
  TGI: > 100 µM
[32]
  TGI: > 100 µM
[33]
  TGI: > 100 µM
[34]
  TGI: > 100 µM
[35]
  TGI: > 100 µM
[36]
  TGI: > 100 µM
[37]
  TGI: > 100 µM
[38]
  TGI: > 100 µM
[57]
  TGI: > 100 µM
[39]
  TGI: > 100 µM
[40]
  TGI: > 100 µM
[41]
  TGI: > 100 µM
[42]
  TGI: > 100 µM
[43]
  TGI: > 100 µM
[44]
  TGI: > 100 µM
[45]
  TGI: > 100 µM
[46]
  TGI: > 100 µM
[47]
  TGI: > 100 µM
[58]
  TGI: > 100 µM
[48]
  TGI: > 100 µM
[49]
  TGI: > 100 µM
[50]
  TGI: > 100 µM
[52]
  TGI: > 100 µM
[53]
  TGI: > 100 µM
[54]
  TGI: > 100 µM
[55]
  TGI: > 100 µM
